The term Emax denotes the size of the effect at its maximum, as opposed to the concentration needed.

The test system of data set [1] is PHE-precontracted rat aorta with endothelium (E+). The data set can be described thus: Vasodilator effect in PHE-precontracted rat aortic rings with intact endothelium (E+). It is filed as cell-based. The conditions noted are these: for EC50: read-out: EC50 (concentration required to achieve 50% relaxation of tissue). How it is done:
(§1) 3-5 months old rats with an average weight of 270±30 g, were used for vascular reactivity experiments.
(§2) Measure of Dilation Activity in Rat Aortic Rings
(§3) Obtaining Aorta rings: Group II rats fasted 24 hours were euthanized by cervical fracture. Thoracic aorta was excised carefully from distal to proximal, from the abdominal aortic bifurcation to aortic arch and placed in a Petri dish containing Krebs-Ringer solution at room temperature with the following composition: 120 mM NaCl; 4.2 mM KCl; 1.18 mM KH2PO4; 1.2 mM MgSO4; 1.3 mM CaCl2; 5 mM C6H12O6; and 25 mM NaHCO3 pH 7.4 and constantly gasified with a mixture of 95% O2 and 5% CO2. After removing blood, fat and connective tissue, the aorta was transversely cut in cylindrical rings 2-3 mm in diameter.
(§4) Mounting of Rings: Each ring was mounted between two triangular stainless steel hooks, one hook was suspended in a glass rod (anchorage) and placed in a Single Organ Chamber with 10 ml Krebs-Ringer constantly aerated with 95% O2 and 5% CO2 gaseous mixture and maintained at 37° C. by thermo regulated pump. The second hook was connected by a thread to an Isometric Force Transducer XDCR (Radnoti Glass Technology Inc. USA.), connected to a data acquisition unit PowerLab 8/30 (ADInstruments). The data were processed using LabChart 7 Pro software, provided by ADInstruments.
(§5) Conditioning of Tissue: After being mounted rings were left to rest with no tension for 30 minutes. Subsequently Krebs-Ringer solution was replaced and rings were allowed to rest for 10 minutes. The rings were then carefully tensioned twice at intervals of 10 minutes each at 1.00 g tension value using micromanipulators. Two settings of tension at 1.40 g at 10 minutes interval each were then made. After the period of stabilization of the tissue, tissue viability was assessed by the addition of solution of 60 mM potassium chloride (KCl). After 10 minutes of contraction of the tissue, it was washed twice at intervals of 5 minutes each before the next addition of KCl.
(§6) Measure of vasodilatory activity: The aortic tissue with endothelium already conditioned was applied a tension of 1.4 g, 1 μM PHE solution was added after 10 minutes. PHE was added cumulatively to each single organ bath after stabilization of PHE-induced contractile response. Stock solutions of 10^−1 M concentration in DMSO were prepared to determine the vasodilatory activity of the isolated metabolites. […] The vasodilator effect was recorded for a period of 30 minutes for each of the concentrations used (FIG. 1). The results are expressed as relaxation percent using the following formula: […]
(§7) wherein R1 is the response induced by PHE and R2 is the response after the extracts are added.
(§8) Endothelium integrity was tested by addition of 1 μM ACh to rings precontracted with 1 uM PHE, and rings were considered with intact endothelium when the ACh dilator response was greater than 80%. While rings with response lower than 10% were discarded (FIG. 2).
(§9) Vascular reactivity experiments were performed to establish the vasodilator action of the isolated compounds. For this, compounds at concentration of 10^−4M were added to the organ chamber, the vasodilatory effect in rings with intact endothelium (E+) and without endothelium (E−) pre-contracted with 1 μM PHE was quantified. We performed parallel vehicle control (DMSO) to discard the relaxing effect of aortic tissue.

For data set [2], the system named is PHE-precontracted rat aorta without endothelium (E−). The data set is described as follows: Vasodilator effect in PHE-precontracted rat aortic rings without endothelium (E−). It is filed as cell-based. Particulars: for Emax at 100 µM: read-out: Emax, maximum relaxation effect; for EC50: dose-response curve; for Emax: read-out: Emax (% relaxation) of dose-response curve. Here is the method: as §1, §2, §3, §4, §5, §6, §7, §8, §9

The subject of the next data set is anesthetized rats. The data set can be described thus: In vivo hypotensive effect in anesthetized rats (mean blood pressure after intravenous administration). Particulars: for % MBP reduction / MBP: mean ± SE. How it is done: Animals used were female albino rats of the Sprague-Dawley strain, obtained from the vivarium of the Universidad de Antofagasta. Two groups of animals were used separated by age:
10-14 months old rats with an average weight of 400±70 g, were used for in vivo experiments. These animals were chosen according to their baseline health status of mild hypertension.
In Vivo Tests—Hypotensive Effect in Anesthetized Rats In vivo experiments were performed using the following protocol. Group I rats were anesthetized with a 5% sodium thiopental aqueous solution at doses of 50 mg/kg animal body weight by intraperitoneal injection. The femoral vein was exposed and cannulated with a PE-10 […] catheter for administering extracts, metabolites and drugs. The right carotid artery was exposed and cannulated using a PE-50 […] catheter filled with heparinized saline (100 IU/mL). This catheter was connected to a pressure transducer (TSD104A) coupled to a data acquisition unit MP100 (BIOPAC Systems Inc) for recording blood pressure. The trachea was exposed and cannulated to facilitate spontaneous breathing of animals. Simultaneously, an ECG recording in derivation II (DII-ECG) was performed using an ECG100B (BIOPAC Systems Inc) module connected to a data acquisition unit MP100. The level of anesthesia of the animals was under constant supervision, so as to remain within surgical levels.
Prior to administration of the next dose, blood pressure and ECG recording were monitored until complete recovery of baseline parameters (pressure and ECG). Effects of each administered dose was measured relative to changes in mean blood pressure, diastolic blood pressure, systolic blood pressure, electrocardiographic changes and compared against the effect of propranolol as a positive control at concentration of 10 mg/Kgweight. After completion of each experiment animals were euthanized by an overdose of anesthetic, by femoral route. The results are expressed as % reduction in BMP, parameter determined using the following equation.
Wherein B is the baseline BMP and E is the value of BMP produced by different doses studied.
All records were performed using 3.9.6.1 Acknowledge software (BIOPAC Systems Inc) and statistical analysis was performed using GraphPad Prism 5.03 software (GraphPad Software Inc.)

[3] abbreviates: Rattus norvegicus, compound at 10^−4 M, rings with intact endothelium (E+) pre-contracted with 1 μM PHE, FIG. 5A, read-out: Emax (% relaxation).
[4] abbreviates: Rattus norvegicus, dose-response curve, E+.
Where [5] appears, read: Rattus norvegicus, maximum effect at 10^−4 M, increasing doses, E+, read-out: Emax (% relaxation) of dose-response curve.
The mark [6] stands for this setting: Rattus norvegicus, compound at 10^−4 M, rings without endothelium (E−) pre-contracted with 1 μM PHE, FIG. 5B.
Where [7] appears, read: Rattus norvegicus, increasing doses up to 10^−4 M, E−.
Where [8] appears, read: dose 10^−8 (head: mg/Kgweight; text: M), intravenous.
The mark [9] stands for this setting: dose 10^−9 (head: mg/Kgweight; text: M), intravenous.
The mark [10] stands for this setting: dose 10^−10 (head: mg/Kgweight; text: M), intravenous.
Setting [11] is: positive control, propranolol 10^−6 M.

Where “and” joins values, the source holds several entries; their conditions need not be identical. Equal values may be shown once. Read-outs that look alike come from different tables or passages of the source.

As to `CC(=O)OCC[N+](C)(C)C` [ACh, acetylcholine, reference compound], in data set [1] (Rattus norvegicus, 10^−6 M ACh, rings with intact endothelium (E+), FIG. 5A, read-out: Emax (% relaxation), positive control), the Emax at 1 µM amounted to 105 ± 5%.
As for `CC(=O)c1ccc(O)c(CC=C(C)C)c1` [Metabolite (A), 4-hydroxy-3-(isopenten-2-yl)-acetophenone], the Emax at 100 µM in data set [1] (setting [3]) came to 122 ± 2.09%; in data set [1] (setting [5]), 111 ± 7.62%; in data set [2] (setting [6]), 118 ± 10.7%. Further, the EC50 is 8.98 nM in data set [1] (setting [4]) and 7.31 nM in data set [2] (Rattus norvegicus, E−). Moreover, the “concentration from which the vasodilator effect started” value in data set [1] (dose-response curve, E+) was ≥ 10^−8 M. Further, the Emax in data set [2] (setting [7]) is 109 ± 7.53%. For the same molecule, the “% MBP reduction” value amounted to 46.93±1.01% in the data set on anesthetized rats (dose 10^−4 M, intravenous); 46.93 ± 1.01% with anesthetized rats (dose 10^−4 M, intravenous, listed as Metabolite 1); 45.37 ± 1.09% with anesthetized rats (dose 10^−5 M, intravenous); 35.92 ± 2.01% with anesthetized rats (dose 10^−6 M, intravenous); 29.68 ± 3.42% in the data set with anesthetized rats (dose 10^−7 M, intravenous); 25.68 ± 5.24% in the data set on anesthetized rats (dose 10^−8 M, intravenous). Also, the “% MBP reduction” value stood at 23.62 ± 5.76% in the data set on anesthetized rats (dose 10^−9 M, intravenous) and 16.56 ± 9.38% in the data set with anesthetized rats (dose 10^−10 M, intravenous). Moreover, the MBP with anesthetized rats (dose 10^−4 M, intravenous) turned out to be 72.12 ± 2.92 mmHg; with anesthetized rats (dose 10^−5 M, intravenous) it was 74.24 ± 2.76 mmHg; in the data set on anesthetized rats (dose 10^−6 M, intravenous), 87.09 ± 1.14 mmHg; in the data set with anesthetized rats (dose 10^−7 M, intravenous), 95.56 ± 5.01 mmHg; in the data set with anesthetized rats (dose 10^−8 M, intravenous), 101.0 ± 8.06 mmHg; in the data set with anesthetized rats (dose 10^−9 M, intravenous), 103.8 ± 7.98 mmHg. In addition, in the data set with anesthetized rats (dose 10^−10 M, intravenous), the MBP is listed as 113.4 ± 12.59 mmHg. The “concentration from which the effect on MBP starts being significant” value with anesthetized rats (intravenous, anesthetized rats) is reported as ≥ 10^−6 M.
`C=C(C)[C@@H]1Cc2cc(C(C)=O)c(O)cc2O1` [Metabolite (B), 6-hydroxy-2-isopropenyl-5-acetyl-2,3-dihydrobenzofuran]: the maximal effect (Emax) at 100 µM is 135 ± 3.78% in data set [1] (setting [3]), 112 ± 6.21% in data set [1] (setting [5]) and 146 ± 4.49% in data set [2] (setting [6]). Further, the EC50 in data set [1] (setting [4]) was 7.16 nM; in data set [2] (Rattus norvegicus, E−), 5.94 nM. The “concentration from which the vasodilator effect started” value in data set [1] (dose-response curve, E+) is given as ≥ 10^−8 M. Further, the Emax in data set [2] (setting [7]) came out at 109 ± 7.53%.
Regarding `CC(C)=CCc1cc(/C(C)=N/O)ccc1O` [Oxime (1), 4-hydroxy-3-(isopenten-2-yl)-acetophenoxime], the values for the maximum response (Emax) at 100 µM in data set [1] (setting [3]), in data set [1] (setting [5]) and in data set [2] (setting [6]) were 130 ± 2.54%, 119 ± 3.92% and 120 ± 1.74%, respectively. For the same molecule, the EC50 in data set [1] (setting [4]) was determined as 6 nM; in data set [2] (Rattus norvegicus, E−), 6.56 nM. Further, in data set [1] (at concentration 10^−5 M, dose-response curve, E+), the tissue relaxation is 101.6±0.90%. Besides, in data set [1] (dose-response curve, E+), the “concentration from which the vasodilator effect started” value is listed as ≥ 10^−9 M. In addition, the maximal effect (Emax) in data set [2] (setting [7]) worked out at 114 ± 6.19%. Also, the “% MBP reduction” value was found to be 70.61 ± 4.32% in the data set with anesthetized rats (dose 10^−7 (head: mg/Kgweight; text: M), intravenous, maximum effect); 70.61±4.32% in the data set on anesthetized rats (dose 10^−7 (head: mg/Kgweight; text: M), intravenous, maximum effect, listed as oxime (1)); 58.31 ± 3.26% with anesthetized rats (setting [8]); 38.41 ± 2.35% in the data set with anesthetized rats (setting [9]); 36.60 ± 7.90% with anesthetized rats (setting [10]). Moreover, the MBP in the data set on anesthetized rats (dose 10^−7 (head: mg/Kgweight; text: M), intravenous) was found to be 41.65 ± 0.85 mmHg; with anesthetized rats (setting [8]) it was 59.05 ± 2.09 mmHg; in the data set on anesthetized rats (setting [9]) it was 87.28 ± 1.90 mmHg; in the data set with anesthetized rats (setting [10]), 89.84 ± 10.88 mmHg. Moreover, the “concentration from which the effect on MBP starts being significant” value in the data set on anesthetized rats (intravenous, anesthetized rats) was ≥ 10^−9 M. Moreover, in the data set with anesthetized rats (intravenous, anesthetized rats), the “doses that induced acute hypotension and subsequent animal death by cardiac arrest” value is listed as “higher than 10^−7 M”.
`C=C(C)C1Cc2cc(C(C)=NO)c(O)cc2O1` (centres unmarked) [Oxime (2), 6-hydroxy-2-isopropenyl-5-acetyloxime-2,3-dihydrobenzofuran]: the “Emax (% relaxation)” value in data set [1] (compound at 10^−4 M, rings with intact endothelium (E+) pre-contracted with 1 μM PHE, FIG. 5A) came out at 118.4±0.93%. Besides, the “concentration from which the vasodilator effect started” value in data set [1] (dose-response curve, E+) is given as ≥ 10^−8 M. In addition, the EC50 in data set [1] (dose-response curve, E+) turned out to be 4.3 nM; in data set [2] (E−), 4.65 nM. In addition, the “Emax (% relaxation) of dose-response curve” value in data set [1] (maximum effect at 10^−4 M, increasing doses, E+) stood at 109.3±2.72%; in data set [2] (increasing doses up to 10^−4 M, E−) it was 110.3±4.40%. Moreover, the “Emax, maximum relaxation effect” value in data set [2] (compound at 10^−4 M, rings without endothelium (E−) pre-contracted with 1 μM PHE, FIG. 5B) is given as 117.7±1.00%.
`CC(C)NCC(O)COc1cccc2ccccc12` (centres unmarked) [propranolol, reference compound]: in the data set on anesthetized rats (setting [11]), the “% MBP reduction” value was 18.99 ± 4.35% and 22.29 ± 3.20%; the MBP was 110.1 ± 6.03 mmHg and 108.70 ± 8.55 mmHg.
